Experimental data from patent US10208089B2, “Modulation of complement activity” (priority 2014, dated 2019).
Starred links: 1 amine or outer side, 2 acyl side, 3 side chain; linkers in the order of their positions; H or OH if unused. Positions of bridges follow the written chain, without caps; N, C: chain ends. Non-standard residues stand in square brackets, D forms with d. Residues, ends and D or L forms follow the SMILES beside them. Trp(7-aza) = N[C@@H](Cc1c[nH]c2ncccc12)C(=O)O; mXylylene = c1cc(C[*:1])cc(C[*:2])c1; Phg = N[C@H](C(=O)O)c1ccccc1; Tle = CC(C)(C)[C@H](N)C(=O)O; NMeS = CN[C@@H](CO)C(=O)O; hCys = N[C@@H](CCS)C(=O)O; Nva = CCC[C@H](N)C(=O)O

Each compound was assayed against C5 (Homo sapiens, UniProt P01031) (assay: Human hemolysis assay (RBC lysis assay using complete human sera)). Settings: inhibition of lysis of antibody-sensitized sheep erythrocytes, complete human sera.
Format: cell-based
Parameters: with complete human sera (Complement Technology, Tyler Tex.) and polypeptides; tissue Complement Technology, Tyler Tex; host or cells: complete human serum

Sequence of C5 (P01031 19-1676): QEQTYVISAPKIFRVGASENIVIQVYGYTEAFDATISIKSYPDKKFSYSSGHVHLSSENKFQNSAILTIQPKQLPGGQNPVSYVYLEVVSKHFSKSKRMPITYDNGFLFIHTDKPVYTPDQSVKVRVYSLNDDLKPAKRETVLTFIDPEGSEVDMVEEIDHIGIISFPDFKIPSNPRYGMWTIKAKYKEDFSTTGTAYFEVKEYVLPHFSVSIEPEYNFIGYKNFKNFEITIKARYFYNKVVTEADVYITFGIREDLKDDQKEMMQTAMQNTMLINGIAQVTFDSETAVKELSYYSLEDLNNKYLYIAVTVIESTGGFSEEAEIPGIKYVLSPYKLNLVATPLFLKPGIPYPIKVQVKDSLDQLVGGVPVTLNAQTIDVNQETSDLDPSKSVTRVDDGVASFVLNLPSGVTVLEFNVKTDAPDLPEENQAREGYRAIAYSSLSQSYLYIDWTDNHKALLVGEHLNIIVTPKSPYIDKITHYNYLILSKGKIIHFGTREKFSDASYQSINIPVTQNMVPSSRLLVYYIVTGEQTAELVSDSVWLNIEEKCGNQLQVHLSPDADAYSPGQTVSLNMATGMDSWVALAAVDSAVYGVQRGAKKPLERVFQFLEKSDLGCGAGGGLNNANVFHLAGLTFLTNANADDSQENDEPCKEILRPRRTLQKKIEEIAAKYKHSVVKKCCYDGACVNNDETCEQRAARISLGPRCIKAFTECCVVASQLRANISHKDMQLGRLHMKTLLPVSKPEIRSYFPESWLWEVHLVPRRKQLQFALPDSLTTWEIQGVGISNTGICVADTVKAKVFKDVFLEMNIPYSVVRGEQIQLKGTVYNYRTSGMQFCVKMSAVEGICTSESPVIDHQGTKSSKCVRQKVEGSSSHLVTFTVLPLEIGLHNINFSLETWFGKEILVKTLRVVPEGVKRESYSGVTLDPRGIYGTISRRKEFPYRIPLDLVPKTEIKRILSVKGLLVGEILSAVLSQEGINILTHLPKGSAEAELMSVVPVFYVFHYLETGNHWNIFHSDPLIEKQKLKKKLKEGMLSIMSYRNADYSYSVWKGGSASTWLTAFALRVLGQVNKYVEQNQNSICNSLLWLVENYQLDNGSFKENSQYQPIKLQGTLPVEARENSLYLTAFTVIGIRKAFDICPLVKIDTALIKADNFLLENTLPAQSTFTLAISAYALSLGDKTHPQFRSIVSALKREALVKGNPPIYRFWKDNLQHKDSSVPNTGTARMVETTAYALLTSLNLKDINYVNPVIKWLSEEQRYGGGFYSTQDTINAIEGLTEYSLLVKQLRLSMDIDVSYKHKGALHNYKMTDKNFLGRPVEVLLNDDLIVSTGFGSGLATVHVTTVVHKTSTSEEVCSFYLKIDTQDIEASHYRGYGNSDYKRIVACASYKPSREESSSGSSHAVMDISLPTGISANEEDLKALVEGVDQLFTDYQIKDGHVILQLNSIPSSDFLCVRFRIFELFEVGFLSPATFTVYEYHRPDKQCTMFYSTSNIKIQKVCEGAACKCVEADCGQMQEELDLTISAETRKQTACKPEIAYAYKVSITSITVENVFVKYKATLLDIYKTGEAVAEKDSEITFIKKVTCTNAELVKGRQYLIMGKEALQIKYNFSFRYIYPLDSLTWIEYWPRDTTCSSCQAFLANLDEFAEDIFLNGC

First: CC(=O)N[C@H]1CSCc2cccc(c2)CSC[C@@H](C(=O)N[C@@H](CC(=O)O)C(=O)N[C@H](C(=O)N[C@@H](Cc2ccc(O)cc2)C(=O)N[C@@H](Cc2c[nH]c3ncccc23)C(=O)N[C@@H](CCC(=O)O)C(=O)N[C@@H](Cc2ccc(O)cc2)C(=O)N2CCC[C@H]2C(=O)N[C@H](C(=O)N[C@@H](CCCCN)C(N)=O)c2ccccc2)C(C)(C)C)NC(=O)[C@H](Cc2ccccc2)NC(=O)[C@H](CCCNC(=N)N)NC(=O)[C@H](CCC(=O)O)NC(=O)[C@H](C)NC1=O [Compound R3161, [mXylyl(1,6)]Ac-C-A-E-R-F-C-D-Tbg-Y-azaTrp-E-Y-P-Phg-K-NH2]
Second: CCC[C@H](NC(=O)[C@@H](NC(=O)[C@@H]1CCCN1C(=O)[C@H](Cc1ccc(O)cc1)NC(=O)[C@H](CCC(=O)O)NC(=O)[C@H](Cc1c[nH]c2ncccc12)NC(=O)[C@H](Cc1ccc(O)cc1)NC(=O)[C@@H](NC(=O)[C@H](CC(=O)O)NC(=O)[C@@H]1CSCc2cccc(c2)CSC[C@H](NC(C)=O)C(=O)N[C@@H](C(C)C)C(=O)N[C@@H](CCC(=O)O)C(=O)N[C@@H](CCCNC(=N)N)C(=O)N[C@@H](C)C(=O)N1)C(C)(C)C)c1ccccc1)C(N)=O [Compound R3155, [mXylyl(1,6)]Ac-C-V-E-R-A-C-D-Tbg-Y-azaTrp-E-Y-P-Phg-Nvl-NH2] (Ac-CVERACD[Tle]Y[Trp(7-aza)]EYP[Phg][Nva]-NH2; linker 1-6 via mXylylene)
The IC50 of the first is 220-fold lower: 7 nM for the first, 1530 nM for the second. The first is the more potent here.

Going from `CCC[C@H](NC(=O)[C@@H](NC(=O)[C@@H]1CCCN1C(=O)[C@H](Cc1ccc(O)cc1)NC(=O)[C@H](CCC(=O)O)NC(=O)[C@H](Cc1c[nH]c2ccccc12)NC(=O)[C@H](Cc1ccc(O)cc1)NC(=O)[C@@H](NC(=O)[C@H](CC(N)=O)NC(=O)[C@H](CCC(=O)O)NC(=O)[C@H](Cc1ccc(O)cc1)NC(C)=O)C(C)(C)C)c1ccccc1)C(N)=O` [Compound R3041, Ac-Y-E-N-Tbg-Y-W-E-Y-P-Phg-Nvl-NH2] to `CSCC[C@H](N)C(=O)N[C@H]1CSCc2cccc(c2)CSC[C@@H](C(=O)N[C@@H](CCC(=O)O)C(=O)N[C@H](C(=O)N[C@@H](CCCNC(=N)N)C(=O)N[C@@H](Cc2c[nH]c3ccccc23)C(=O)N[C@@H](CCC(=O)O)C(=O)N[C@@H](Cc2ccc(O)cc2)C(N)=O)C(C)C)NC(=O)[C@H](Cc2ccc(O)cc2)NC(=O)[C@H](CCCNC(=N)N)NC(=O)[C@H](CCC(=O)O)NC(=O)[C@H](CO)NC1=O` [Compound R3020, [mXylyl(2,7)]M-C-S-E-R-Y-C-E-V-R-W-E-Y-NH2] (H-MCSERYCEVRWEY-NH2; linker 2-7 via mXylylene), the IC50 falls from 71.3 nM to 24.6 nM (2.9-fold). The second is the more potent here.

Compared with `CCC[C@H](NC(=O)[C@@H]1CSCc2cccc(c2)CSCC[C@H](NC(=O)[C@H](CCC)NC(C)=O)C(=O)N[C@@H](c2ccccc2)C(=O)N[C@@H]([C@@H](C)O)C(=O)N[C@@H](Cc2c[nH]c3ncccc23)C(=O)N[C@@H](CCC(=O)O)C(=O)N[C@@H](Cc2ccc(O)cc2)C(=O)N(C)[C@@H](CO)C(=O)N[C@@H](Cc2c[nH]cn2)C(=O)N1)C(N)=O` [Compound R3103, [mXylyl(2,10)]Ac-Nvl-homoC-Phg-T-azaTrp-E-Y-(N-Me)S-H-C-Nvl-NH2] (Ac-[Nva][hCys][Phg]T[Trp(7-aza)]EY[NMeS]HC[Nva]-NH2; linker 2-10 via mXylylene), `CCC[C@H](NC(=O)[C@@H]1CSCc2cccc(c2)CSC[C@H](NC(=O)[C@H](CCC)NC(C)=O)C(=O)N[C@@H](c2ccccc2)C(=O)N[C@@H]([C@@H](C)O)C(=O)N[C@@H](Cc2c[nH]c3ncccc23)C(=O)N[C@@H](CCC(=O)O)C(=O)N[C@@H](Cc2ccc(OC)cc2)C(=O)N(C)[C@@H](CO)C(=O)N[C@@H](Cc2c[nH]cn2)C(=O)N1)C(N)=O` [Compound R3074, [mXylyl(2,10)]Ac-Nvl-C-Phg-T-azaTrp-E-Tyr(OMe)-(N-Me)S-H-C-Nvl-NH2] (Ac-[Nva]C[Phg]T[Trp(7-aza)]EY(Me)[NMeS]HC[Nva]-NH2; linker 2-10 via mXylylene) is lower in IC50: over 25000 nM for the first, 308 nM for the second.

`CCC[C@H](NC(=O)[C@@H]1CSCc2cccc(c2)CSC[C@H](NC(=O)[C@H](CCC)NC(C)=O)C(=O)N[C@@H](c2ccccc2)C(=O)N[C@@H]([C@@H](C)O)C(=O)N[C@@H](Cc2c[nH]c3ncccc23)C(=O)N[C@@H](CC(N)=O)C(=O)N[C@@H](Cc2ccc(O)cc2)C(=O)N(C)[C@@H](CO)C(=O)N[C@@H](C)C(=O)N1)C(N)=O` [Compound R3099, [mXylyl(2,10)]Ac-Nvl-C-Phg-T-azaTrp-N-Y-(N-Me)S-A-C-Nvl-NH2] (Ac-[Nva]C[Phg]T[Trp(7-aza)]NY[NMeS]AC[Nva]-NH2; linker 2-10 via mXylylene) and `CCC[C@H](NC(=O)[C@@H]1CSSC[C@H](NC(=O)[C@H](CCC)NC(C)=O)C(=O)N[C@@H](c2ccccc2)C(=O)N[C@@H]([C@@H](C)O)C(=O)N[C@@H](Cc2c[nH]c3ncccc23)C(=O)N[C@@H](CCC(=O)O)C(=O)N[C@@H](Cc2ccc(O)cc2)C(=O)N(C)[C@@H](CO)C(=O)N[C@@H](Cc2c[nH]cn2)C(=O)N1)C(N)=O` [Compound R3042, [cyclo(2,10)]Ac-Nvl-C-Phg-T-azaTrp-E-Y-(N-Me)S-H-C-Nvl-NH2] (Ac-[Nva]C[Phg]T[Trp(7-aza)]EY[NMeS]HC[Nva]-NH2; disulfide 2-10) cannot be ordered by IC50: over 100000 nM for the first, over 100000 nM for the second.
